What follows are molecules tested on Cell line HT-29 derived from colon tumor (assay: Growth inhibition against colon tumor cell line (MTT method)). Conditions: 0.1 mM, 72 hours, control 0.337 ± 0.055.
Format: cell-based
Description: Cell line HT-29 derived from colon tumor was inoculated into McCoy's SA medium supplemented with 10% fetal calf serum comprising penicillin 50 U/ml, streptomycin 50 μg/ml and HEPES 10 mM on 96-well cell culture plate (7,500 cells/well). The cells were pre-incubated in an atmosphere of 95% air and 5% carbon dioxide at 37° C. for 24 hours. […] The plate was incubated further 72 hours. The cell number in the each well was determined by the MTT method based on the difference of the optical density.
In the case of `C[C@H](CC(=O)O)OC(=O)C[C@@H](C)O` [R-dimer, dimer of R(−)-β-hydroxybutyric acid], the “cell number by MTT method (optical density)” value (shortened to “cell number by MTT method”) is reported as 0.288 ± 0.019. For `C[C@@H](O)CC(=O)O` [R-β-hydroxy-butyric acid, R(−)-β-hydroxy-butyric acid], the “cell number by MTT method” value was 0.271 ± 0.028. With `C[C@H](O)CC(=O)O` [S-β-hydroxy-butyric acid, S(+)-β-hydroxybutyric acid] the “cell number by MTT method” value was 0.257 ± 0.035. `CCCC(=O)O` [butyric acid, reference compound] was tested, and the “cell number by MTT method” value was 0.234 ± 0.012.

Same assay, conditions: 0.5 mM, 72 hours, control 0.337 ± 0.055
With `C[C@H](CC(=O)O)OC(=O)C[C@@H](C)O` [R-dimer, dimer of R(−)-β-hydroxybutyric acid] the “cell number by MTT method” value was 0.251 ± 0.029. In the case of `C[C@@H](O)CC(=O)O` [R-β-hydroxy-butyric acid, R(−)-β-hydroxy-butyric acid], the “cell number by MTT method” value is reported as 0.264 ± 0.019. In the case of `C[C@H](O)CC(=O)O` [S-β-hydroxy-butyric acid, S(+)-β-hydroxybutyric acid], the “cell number by MTT method” value is reported as 0.255 ± 0.013. In the case of `CCCC(=O)O` [butyric acid, reference compound], the “cell number by MTT method” value is reported as 0.243 ± 0.009.

Same assay, conditions: 1 mM, 72 hours, control 0.337 ± 0.055
`C[C@H](CC(=O)O)OC(=O)C[C@@H](C)O` [R-dimer, dimer of R(−)-β-hydroxybutyric acid] was tested, and the “cell number by MTT method” value was 0.248 ± 0.029. For `C[C@@H](O)CC(=O)O` [R-β-hydroxy-butyric acid, R(−)-β-hydroxy-butyric acid], the “cell number by MTT method” value was 0.272 ± 0.015. For `C[C@H](O)CC(=O)O` [S-β-hydroxy-butyric acid, S(+)-β-hydroxybutyric acid], the “cell number by MTT method” value was 0.281 ± 0.017. With `CCCC(=O)O` [butyric acid, reference compound] the “cell number by MTT method” value was 0.250 ± 0.010.

Same assay, conditions: 2 mM, 72 hours, control 0.337 ± 0.055
With `C[C@H](CC(=O)O)OC(=O)C[C@@H](C)O` [R-dimer, dimer of R(−)-β-hydroxybutyric acid] the “cell number by MTT method” value was 0.237 ± 0.019. `C[C@@H](O)CC(=O)O` [R-β-hydroxy-butyric acid, R(−)-β-hydroxy-butyric acid] was tested, and the “cell number by MTT method” value was 0.284 ± 0.023. With `C[C@H](O)CC(=O)O` [S-β-hydroxy-butyric acid, S(+)-β-hydroxybutyric acid] the “cell number by MTT method” value was 0.293 ± 0.022. With `CCCC(=O)O` [butyric acid, reference compound] the “cell number by MTT method” value was 0.200 ± 0.009.

Reference: patent US9649332B2, “Poly (β-hydroxy short-medium chain fatty acid)” (EARTHUS, INC., priority 2003, dated 2017)
